From patent publication US20110190285A1 (priority 2008, published 2011)

These compounds were tested against botulinum toxin recombinant light chain (Clostridium botulinum, UniProt P0DPI0) (assay: biochemical). Settings: not given.
Sequence of botulinum toxin recombinant light chain (P0DPI0 2-448 limits assumed): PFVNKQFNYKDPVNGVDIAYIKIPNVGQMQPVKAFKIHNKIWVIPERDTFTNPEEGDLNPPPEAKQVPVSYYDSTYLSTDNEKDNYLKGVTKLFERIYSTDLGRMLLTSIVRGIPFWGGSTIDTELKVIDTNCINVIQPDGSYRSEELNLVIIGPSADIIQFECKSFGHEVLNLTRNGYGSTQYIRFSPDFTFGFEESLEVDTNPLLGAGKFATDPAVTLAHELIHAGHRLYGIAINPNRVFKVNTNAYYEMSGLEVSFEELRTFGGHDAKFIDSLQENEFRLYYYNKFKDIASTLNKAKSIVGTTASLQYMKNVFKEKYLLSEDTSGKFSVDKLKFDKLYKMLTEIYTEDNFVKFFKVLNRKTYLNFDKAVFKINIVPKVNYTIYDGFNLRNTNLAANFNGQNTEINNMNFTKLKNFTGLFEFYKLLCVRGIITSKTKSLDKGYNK

SMILES	IC50 [µM]
C[C@@H](NC(=O)CS)c1ccc2ccccc2c1	8 to 21
CC(NC(=O)CS)c1ccc(Cl)cc1Cl (stereo not drawn) [drawing 65]	5 to 27

These compounds were tested against botulinum (serotype-A) (Clostridium botulinum, UniProt P0DPI1) (assay: cell-based). Settings: read-out: Cell Biology (% inhibition at 30 uM).
Sequence of botulinum (serotype-A) (P0DPI1 2-1296 limits assumed): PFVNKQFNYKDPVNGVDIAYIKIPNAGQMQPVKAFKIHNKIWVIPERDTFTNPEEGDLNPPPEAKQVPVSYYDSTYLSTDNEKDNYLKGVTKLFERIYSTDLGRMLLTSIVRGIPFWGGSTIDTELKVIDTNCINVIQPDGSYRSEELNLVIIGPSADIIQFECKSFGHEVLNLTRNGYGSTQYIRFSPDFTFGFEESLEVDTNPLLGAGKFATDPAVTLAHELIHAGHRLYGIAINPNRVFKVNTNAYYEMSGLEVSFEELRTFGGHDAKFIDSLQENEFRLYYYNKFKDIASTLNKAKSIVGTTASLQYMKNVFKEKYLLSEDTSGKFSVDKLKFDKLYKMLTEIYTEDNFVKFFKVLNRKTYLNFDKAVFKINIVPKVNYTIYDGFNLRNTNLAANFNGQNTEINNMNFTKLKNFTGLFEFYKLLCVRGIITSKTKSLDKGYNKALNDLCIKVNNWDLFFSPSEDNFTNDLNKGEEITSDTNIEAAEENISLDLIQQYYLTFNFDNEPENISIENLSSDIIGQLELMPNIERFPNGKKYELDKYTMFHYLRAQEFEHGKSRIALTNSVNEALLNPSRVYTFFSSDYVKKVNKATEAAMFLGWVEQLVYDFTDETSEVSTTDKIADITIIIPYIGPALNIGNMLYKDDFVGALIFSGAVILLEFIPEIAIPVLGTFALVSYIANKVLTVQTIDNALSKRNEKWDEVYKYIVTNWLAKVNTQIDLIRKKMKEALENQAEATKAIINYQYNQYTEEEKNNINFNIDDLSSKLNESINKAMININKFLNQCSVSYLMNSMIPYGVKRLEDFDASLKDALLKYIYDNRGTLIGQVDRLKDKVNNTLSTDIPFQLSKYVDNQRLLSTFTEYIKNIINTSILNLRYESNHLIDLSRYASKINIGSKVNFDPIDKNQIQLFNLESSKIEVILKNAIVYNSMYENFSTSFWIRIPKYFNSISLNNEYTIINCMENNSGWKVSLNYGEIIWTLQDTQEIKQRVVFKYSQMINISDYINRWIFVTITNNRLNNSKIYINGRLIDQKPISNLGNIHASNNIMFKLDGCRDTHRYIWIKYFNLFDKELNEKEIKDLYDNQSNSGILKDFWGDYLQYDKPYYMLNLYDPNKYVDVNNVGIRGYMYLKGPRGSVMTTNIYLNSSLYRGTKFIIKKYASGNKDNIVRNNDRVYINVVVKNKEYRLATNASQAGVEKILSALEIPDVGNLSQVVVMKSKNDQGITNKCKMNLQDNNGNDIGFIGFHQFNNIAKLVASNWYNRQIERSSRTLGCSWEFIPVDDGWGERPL

SMILES	inhibition at 30 µM [%]
O=C(CS)Nc1cc(-c2ccc(Cl)cc2)n[nH]1	57 to 100
CCOC(=O)Cc1csc(NC(=O)CS)n1	86
Cc1ccc(NC(=O)CS)cc1C#N	77
O=C(CS)Nc1ccc2c(c1)Cc1cc(Br)ccc1-2	90
O=C(CS)Nc1cc(-c2ccc(F)cc2)n[nH]1	73 to 78

Same assay, conditions: read-out: Cell Biology IC50

SMILES	IC50 [µM]
O=C(CS)Nc1cc(-c2ccc(Cl)cc2)n[nH]1	10 to 19
CC(NC(=O)CS)c1ccc(Cl)cc1Cl (stereo not drawn) [drawing 69]	18
